Reference: patent publication US6022969A, “Compositions and methods for treating mast-cell mediated conditions” (AXYS Pharmaceuticals, Inc., priority 1995, dated 2000)

biological target: tryptase; test: In vitro tryptase inhibition assay (hydrolysis of tosyl-Gly-Pro-Lys-p-nitroanilide); format: biochemical, human; settings: tosyl-Gly-Pro-Lys-p-nitroanilide 0.5 mM, pH 8.2, 1 h pre-incubation, room temperature
Method: The compounds to be assayed (approximately 1 mg) were dissolved in 200 μL dimethylsulfoxide (DMSO) and diluted 1:10 into buffer containing 50 millimolar (mM) Tris-HCl (pH 8.2), 100 mM sodium chloride, and 0.05% polyoxyethylenesorbitan monolaurate (Tween-20®, available from Sigma, St. Louis, Mo.). Seven additional threefold dilutions were made from the initial dilution into the same buffer supplemented with 10% DMSO. Aliquots (50 microliters, μL) from each of the eight dilutions in the series were transferred to individual wells in a 96-well U-bottom microtiter plate. 25 μL of a stock solution of tryptase was added to each well and the samples were mixed and incubated for one hour at room temperature (tryptase was purified from human lung and skin tissue preparations, HMC-1 (human mast cell line) and also obtained from commercial sources (ICN Biomedicals, Irvine, Calif.; Athens Research & Technology, Athens, Ga.)). […] The tryptase solution was prepared by placing 60 μg/mL of tryptase into solution with 10 mM MES (2-[N-Morpholino]ethane sulfonic acid) containing 2 mM CaCl2, 20% glycerol and 50 μg/mL heparin. The enzyme reaction was initiated with the addition of the synthetic tripeptide substrate, tosyl-Gly-Pro-Lys-p-nitroanilide (available from Sigma, 25 μL; 0.5 mM final concentration).
However, Ki ' varies with the enzyme concentration used in the enzyme assay. […] The y-intercept of a replot of IC50 (ordinate) versus tryptase concentration (abscissa) produces a value for Ki '.
The inhibition constants (Ki ', micromolar (μM)) were determined for the compounds of the present invention.

With `NCC12CCC(CNC(=O)N3CCN(C(=O)O[C@H]4CCC[C@@H](OC(=O)N5CCN(C(=O)NCC67CCC(CN)(CC6)CC7)CC5)CCC4)CC3)(CC1)CC2` (relative stereo) [Compound 15, cis-1,5-cyclooctylene[4-(4-aminomethylbicyclo[2.2.2]oct-1-ylmethylcarbamoyl)-1-piperazinecarboxylate]] as the molecule, how does the Ki read?
The Ki was 302 nM.

Which Ki does the source give for `N=C(N)Nc1ccc(CNC(=O)CNC(=O)OC[C@H]2CC[C@H](COC(=O)NCC(=O)NCc3ccc(NC(=N)N)cc3)CC2)cc1` [Compound 1, trans-1,4-Cyclohexylenedimethylene bis(4-guanidinobenzylcarbamoylmethylaminocarboxylate)] here?
The Ki was 4 nM.

For `N=C(N)Nc1ccc(CNC(=O)CNC(=O)O[C@H]2CCC[C@@H](OC(=O)NCC(=O)NCc3ccc(NC(=N)N)cc3)CCC2)cc1` [Compound 2, cis-1,5-Cyclooctylene bis(4-guanidinobenzylcarbamoylmethylaminocarboxylate)], which Ki is on record?
Its Ki is 2 nM.

How did the Ki turn out when `NC[C@H]1CC[C@H](CNC(=O)N2CCN(C(=O)O[C@H]3CCC[C@@H](OC(=O)N4CCN(C(=O)NC[C@H]5CC[C@H](CN)CC5)CC4)CCC3)CC2)CC1` [Compound 4, cis-1,5-Cyclooctylene bis[4-((trans-4-aminomethylcyclohexylenemethylene)carbamoyl)-1-piperazinecarboxylate]] was run?
Its Ki is 15.8 nM.

`N=C(N)N1CCC(CCC(=O)N2CCN(C(=O)O[C@H]3CCC[C@@H](OC(=O)N4CCN(C(=O)CCC5CCN(C(=N)N)CC5)CC4)CCC3)CC2)CC1` [Compound 5, cis-1,5-cyclooctylene bis{4-[3-(1-amidinopiperid-4-yl)propionoyl]-1-piperazinecarboxylate}] was tested. Which Ki did it give?
The Ki was 2 nM.

How did the Ki turn out when `N=C(N)c1ccc(CCC(=O)N2CCN(C(=O)O[C@H]3CCC[C@@H](OC(=O)N4CCN(C(=O)CCc5ccc(C(=N)N)cc5)CC4)CCC3)CC2)cc1` [Compound 6, cis-1,5-cyclooctylene bis{4-[3(4-amidinophenyl)propionoyl]-1-piperazinecarboxylate}] was run?
Its Ki is 0.37 nM.

How did the Ki turn out when `N=C(N)N1CCC(CC(=O)N2CCN(C(=O)O[C@H]3CCC[C@@H](OC(=O)N4CCN(C(=O)CC5CCN(C(=N)N)CC5)CC4)CCC3)CC2)CC1` [Compound 7, cis-1,5-cyclooctylene bis{[4-(1-amidinopiperid-4-ylacetyl)-1-piperazinecarboxylate]}] was run?
Its Ki is 5 nM.

For `N=C(N)N1CCC(CCNC(=O)N2CCN(C(=O)O[C@H]3CCC[C@@H](OC(=O)N4CCN(C(=O)NCCC5CCN(C(=N)N)CC5)CC4)CCC3)CC2)CC1` [Compound 8, cis-1,5-cyclooctylene bis{4-[2-(1-amidinopiperid-4-yl)ethylcarbamoyl]-1-piperazinecarboxylate}], which Ki is on record?
The Ki was 30 nM.

Which Ki does the source give for `NC[C@H]1CC[C@H](C(=O)N2CCN(C(=O)O[C@H]3CCC[C@@H](OC(=O)N4CCN(C(=O)[C@H]5CC[C@H](CN)CC5)CC4)CCC3)CC2)CC1` [Compound 9, cis-1,5-cyclooctylene bis[4-(trans-4-aminomethylcyclohexylcarbonyl)-1-piperazinecarboxylate]] here?
Its Ki is 493 nM.

With `N=C(N)Nc1ccc(CC(=O)N2CCN(C(=O)O[C@H]3CCC[C@@H](OC(=O)N4CCN(C(=O)Cc5ccc(NC(=N)N)cc5)CC4)CCC3)CC2)cc1` [Compound 10, cis-1,5-cyclooctylene bis[4-(4-guanidinophenylacetyl)-1-piperazinecarboxylate]] as the molecule, how does the Ki read?
Its Ki is 0.47 nM.

How did the Ki turn out when `N=C(N)Nc1ccc(CCC(=O)N2CCN(C(=O)O[C@H]3CCC[C@@H](OC(=O)N4CCN(C(=O)CCc5ccc(NC(=N)N)cc5)CC4)CCC3)CC2)cc1` [Compound 11, cis-1,5-cyclooctylene bis[4-[3-(4-guanidinophenyl)propionyl]-1-piperazinecarboxylate}] was run?
Its Ki is 207 nM.

For `NC[C@H]1CC[C@H](CNC(=O)N2CCCN(C(=O)O[C@H]3CCC[C@@H](OC(=O)N4CCCN(C(=O)NC[C@H]5CC[C@H](CN)CC5)CC4)CCC3)CC2)CC1` [Compound 12, cis-1,5-cyclooctylene bis[4-(trans-4-aminomethylcyclohexylmethylcarbamoyl)-1-(perhydro-7H-1,4-diazepine)carboxylate]], which Ki is on record?
The Ki was 260 nM.

How did the Ki turn out when `NCc1ccc(CNC(=O)N2CCN(C(=O)O[C@H]3CCC[C@@H](OC(=O)N4CCN(C(=O)NCc5ccc(CN)cc5)CC4)CCC3)CC2)cc1` [Compound 13, cis-1,5-cyclooctylene bis[4-(4-aminomethylbenzylcarbamoyl)-1-piperazinecarboxylate]] was run?
The Ki was 0.13 nM.

With `NCCc1ccc(CNC(=O)N2CCN(C(=O)O[C@H]3CCC[C@@H](OC(=O)N4CCN(C(=O)NCc5ccc(CCN)cc5)CC4)CCC3)CC2)cc1` [Compound 14, cis-1,5-cyclooctylene bis{4-[4-(2-aminoethyl)benzylcarbamoyl]-1-piperazinecarboxylate]] as the molecule, how does the Ki read?
Its Ki is 1300 nM.

`NCCc1ccc(CC(=O)N2CCN(C(=O)O[C@H]3CCC[C@@H](OC(=O)N4CCN(C(=O)Cc5ccc(CCN)cc5)CC4)CCC3)CC2)cc1` [Compound 16] was tested. Which Ki did it give?
Its Ki is 1.5 nM.

How did the Ki turn out when `NCCc1ccc(C(=O)N2CCN(C(=O)O[C@H]3CCC[C@@H](OC(=O)N4CCN(C(=O)c5ccc(CCN)cc5)CC4)CCC3)CC2)cc1` [Compound 17, cis-1,5-cyclooctylene bis{4-[4-(2-aminoethyl)benzoyl]-1-piperazinecarboxylate]] was run?
The Ki was 4.9 nM.

For `CC(CN)c1ccc(C(=O)N2CCN(C(=O)O[C@H]3CCC[C@@H](OC(=O)N4CCN(C(=O)c5ccc(C(C)CN)cc5)CC4)CCC3)CC2)cc1` (stereo partly drawn) [Compound 18, cis-1,5-cyclooctylene bis{4-[4-(1-aminoprop-2-yl)benzoyl]-1-piperazinecarboxylate}], which Ki is on record?
The Ki was 713 nM.

How did the Ki turn out when `NCCC1CCN(C(=O)N2CCN(C(=O)O[C@H]3CCC[C@@H](OC(=O)N4CCN(C(=O)N5CCC(CCN)CC5)CC4)CCC3)CC2)CC1` [Compound 19] was run?
The Ki was 1510 nM.

With `NCC[C@H]1CC[C@H](CC(=O)N2CCN(C(=O)O[C@H]3CCC[C@@H](OC(=O)N4CCN(C(=O)C[C@H]5CC[C@H](CCN)CC5)CC4)CCC3)CC2)CC1` [Compound 20, cis-1,5-cyclooctylene bis{4-[trans-4-(2-aminoethyl)cyclohexylacetyl]-1-piperazinecarboxylate}] as the molecule, how does the Ki read?
The Ki was 0.81 nM.

How did the Ki turn out when `NCCC1CCC(C(=O)N2CCN(C(=O)O[C@H]3CCC[C@@H](OC(=O)N4CCN(C(=O)C5CCC(CCN)CC5)CC4)CCC3)CC2)CC1` (stereo partly drawn) [Compound 22, cis-1,5-cyclooctylene bis{4-[4-(2-aminoethyl)cyclohexylcarbonyl]-1-piperazinecarboxylate]] was run?
Its Ki is 9 nM.

With `NCC1CCN(C(=O)NCC2CCN(C(=O)OC[C@H]3CC[C@H](COC(=O)N4CCC(CNC(=O)N5CCC(CN)CC5)CC4)CC3)CC2)CC1` [Compound 23, trans-1,4-cyclohexylenedimethylene bis{4-[4(aminomethyl)piperid-1-ylcarbonylaminomethyl]-1-piperidinecarboxylate}] as the molecule, how does the Ki read?
Its Ki is 119 nM.

For `N=C(N)c1ccc(CC(=O)N2CCN(C(=O)O[C@H]3CCC[C@@H](OC(=O)N4CCN(C(=O)Cc5ccc(C(=N)N)cc5)CC4)CCC3)CC2)cc1` [Compound 24, cis-1,5-cyclooctylene bis[4-(4-amidinophenylacetyl)-1-piperazinecarboxylate)], which Ki is on record?
The Ki was 0.16 nM.

For `NCC1CCN(C(=O)NCCCCNC(=O)O[C@H]2CCC[C@@H](OC(=O)NCCCCNC(=O)N3CCC(CN)CC3)CCC2)CC1` [Compound 25, cis-1,5-cyclooctylene bis{4-[4-(aminomethyl)piperid-1-ylcarbonylamino]butylaminocarboxylate}], which Ki is on record?
The Ki was 734 nM.

For `NCC1CCN(C(=O)NCC2CCN(C(=O)O[C@H]3CCC[C@@H](OC(=O)N4CCC(CNC(=O)N5CCC(CN)CC5)CC4)CCC3)CC2)CC1` [Compound 26, cis-1,5-cyclooctylene bis{4-[4-(aminomethyl)piperid-1-ylcarbonylaminomethyl)-1-piperidinecarboxylate}], which Ki is on record?
Its Ki is 332 nM.

`N=C(N)N1CCC(CNC(=O)N2CCN(C(=O)O[C@H]3CCC[C@@H](OC(=O)N4CCN(C(=O)NCC5CCN(C(=N)N)CC5)CC4)CCC3)CC2)CC1` [Compound 27, cis-1,5-cyclooctylene bis[4-(1-amidinopiperid-4-ylmethylcarbamoyl)-1-piperazinecarboxylate]] was tested. Which Ki did it give?
The Ki was 614 nM.

With `N=C(N)c1ccc(CNC(=O)N2CCN(C(=O)O[C@H]3CCC[C@@H](OC(=O)N4CCN(C(=O)NCc5ccc(C(=N)N)cc5)CC4)CCC3)CC2)cc1` [Compound 28, cis-1,5-cyclooctylene bis[4-(4-amidinobenzylcarbamoyl)-1-piperazinecarboxylate}] as the molecule, how does the Ki read?
Its Ki is 8.7 nM.

Which Ki does the source give for `N=C(N)Nc1ccc(CNC(=O)N2CCN(C(=O)OC3COC4C(OC(=O)N5CCN(C(=O)NCc6ccc(NC(=N)N)cc6)CC5)COC34)CC2)cc1` (stereo not drawn) [Compound 29, cis-2,6-(4,8-dioxabicyclo[3.3.0]octylene)bis[4-(4-guanidinobenzylcarbamoyl)-1-piperazinecarboxylate]] here?
Its Ki is 3.8 nM.

Which Ki does the source give for `N=C(N)Nc1ccc(CNC(=O)N2CCN(C(=O)OCC3C4C=CC(CC4)C3COC(=O)N3CCN(C(=O)NCc4ccc(NC(=N)N)cc4)CC3)CC2)cc1` (stereo not drawn) [Compound 30, trans-2,3-bicyclo[2.2.2]oct-5-enylenedimethylene bis[4-(4-guanidinobenzylcarbamoyl)-1-piperazinecarboxylate]] here?
The Ki was 8 nM.
